Data set [1] deals with luciferase mRNA (control luc+9). The data set is described as follows: wheat germ lysate translation of control luciferase mRNA. To be noted: control mRNA without TAR. It is filed as biochemical. The text has this: It is believed that stabilization of mRNA structures near the 5′-cap also could be effected by specific “small” molecules, and that such binding would reduce the translational efficiency of the mRNA. To test this hypothesis, a plasmid was constructed containing the luciferase message behind a 5′-UTR containing a 27-mer RNA construct of the HIV TAR stem-loop bulge whose structure had been determined by NMR.

In data set [2] the test system is TAR RNA interaction with tat peptide. The data set is described as follows: disruption of TAR RNA interaction with tat peptide. It is filed as binding, HIV.
The subject of data set [3] is TAR. To be noted: in words, FIG. 36.
In data set [4] the target is luciferase mRNA containing the TAR RNA structure in the 5′-UTR. The data set is described as follows: wheat germ lysate translation of luciferase mRNA containing TAR RNA structure. The class given is biochemical, HIV. To be noted: luciferase mRNA with TAR RNA structure in the 5′-UTR, read-out: concentration reducing translation by 50%. The text has this:
It is believed that stabilization of mRNA structures near the 5′-cap also could be effected by specific “small” molecules, and that such binding would reduce the translational efficiency of the mRNA. To test this hypothesis, a plasmid was constructed containing the luciferase message behind a 5′-UTR containing a 27-mer RNA construct of the HIV TAR stem-loop bulge whose structure had been determined by NMR. The resulting mRNA could be expressed and capped in a wheat germ lysate translation system supplemented with T7 polymerase following addition of m^7G to the lysate (see, FIG. 38A). Insertion of a 9-base leader before the TAR structure (HIVluc+9) enhanced the translational efficiency, presumably by allowing the pre-initiation complex to form. The helicase activity associated with the pre-initiation complex can transiently melt out the TAR RNA structure, and the message is translated (see, FIG. 38A).

Data set [5] relates to E. coli. The data set is described as follows: high throughput screening assay for antibacterial activity. It is filed as cell-based. To be noted: Escherichia coli; crude compounds, against E. coli; read-out: minimum inhibitory concentrations (MIC's). An excerpt: This activity was verified by manual solution synthesis of analytically pure material as described in Example 6 above, which had identical activity.

Data set [6] addresses 27-mer RNA containing the A-site of the 16S rRNA. The following applies: cited from earlier work.
Data set [7] relates to luciferase reporter. The data set is described as follows: transcription/translation assay based on expression of a luciferase plasmid. It is filed as biochemical. The protocol:
The compounds are screened for binding affinity using MASS or conventional high-throughput functional screens. The best scoring compounds from docking a 256-member library against the 16S A-site ribosomal RNA structure are shown in the table below. The MASS assay was performed with the 27-mer model RNA sequence of the 16S A-site whose NMR structure has been determined. The transcription/translation assay was based on expression of a luciferase plasmid.

For data set [8], the target named is 27-mer model RNA sequence of the 16S A-site. The experiment in a line: MASS assay (mass spectrometry binding affinity). To be noted: 27-mer model RNA of the 16S A-site. An excerpt:
One mass spectrometric method which is particularly useful when combined with the techniques of the foregoing commonly owned inventions provides the determination of specificity and affinity of ligands to RNA targets. MASS (multi target affinity/specificity screening) techniques can provide high throughput screening methods to analyze the specificity and affinity of ligands to molecular interaction sites of nucleic acids, especially RNA. […]
Binding site information can be obtained by comparing the gas phase fragmentation patterns of the free and complexed target while relative binding constants are derived from the relative abundance of complexes using a complex with a known Kd as an internal standard. With knowledge of the specificity and affinity of ligands to the molecular interaction site of a target RNA, the desired lead or ultimate compound for modulation of the RNA can be determined.
The compounds are screened for binding affinity using MASS or conventional high-throughput functional screens. […] The MASS assay was performed with the 27-mer model RNA sequence of the 16S A-site whose NMR structure has been determined. […]

For data set [9] the following is noted: cited from earlier work.
Data set [10] has as its system 23S rRNA fragment / L11 protein fragment. The data set is described as follows: L11/thiostrepton SPA assay. It is filed as binding. To be noted: positive control, RNA under destabilizing conditions. The text has this: The mode of action of thiostrepton appears to be to stabilize a region of the 23S rRNA and by doing so prevent a structural transition in the L11 protein. Among the many assays that look at RNA/protein interactions, an SPA assay has been designed to look for small molecules that could be effective as thiostrepton ‘like’ agents. This assay uses a radiolabeled small fragment of the 23S rRNA, a biotinylated 75 amino acid fragment of the L11 protein that contains the 23S rRNA binding domain and thiostrepton. The folding conditions of the secondary and tertiary structures of the 23S rRNA fragment have been examined as have the binding conditions of the L11 fragment to the 23S rRNA. The L11-thiostrepton assay has been optimized so that the 23S rRNA fragment is in an unfolded state prior to the addition of compounds. Addition of the L11 fragment to this unfolded RNA results in no detectable binding interaction. The high throughput assay is run by mixing the 23S rRNA fragment, under destabilizing conditions, with compounds of interest, incubating this mixture, and then adding the L11 fragment. Streptavidin-coated SPA beads are added for binding detection. Thiostrepton is used as a positive control.

Each structure is given as a SMILES string. Converted amounts (≈) assume the structure as drawn. Like-named read-outs stand apart in the source and are kept apart here.

Data on five compounds can be found in patent publication US20030017483A1, “Modulation of molecular interaction sites on RNA and other biomolecules” (priority 1998, published 2003).

With `CNc1ccc(NCCO)c2c1C(=O)c1ccccc1C2=O` [ACD 00001199], the “inhibition of translation of the luciferase mRNA” value in [1] is “some inhibition of translation at very high concentrations”. The “concentration at which the interaction of TAR RNA with tat peptide is disrupted” value in data set [2] came out at 1 µM. The IC50 values result in [3] was “low”. In addition, the IC50 in [4] was 50 µM.

Regarding `O=C(NO)[C@@H](Cc1ccc2ccccc2c1)NS(=O)(=O)c1ccc2ccccc2c1` [Compound 5-n-ii, (2R)-3-(2-naphthyl)-2-((2-naphthylsulfonyl)amino)propanehydroxamic Acid], the MIC in data set [5] lay in the range of 0.7 to 1.5 µM (≈ 0.294 to 0.631 µg/mL).

Turning to `O=C(NO)[C@@H](Cc1ccc2ccccc2c1)NS(=O)(=O)c1ccc(Br)cc1` [Compound 5-n-vi, (2R)-2-(((4-bromophenyl)sulfonyl)amino)-3-(2-naphthyl)propanehydroxamic Acid], in data set [5], the MIC lay within 3 to 6 µM (≈ 1.35 to 2.7 µg/mL).

Regarding `NC[C@@H]1O[C@H](O[C@H]2[C@@H](O)[C@H](O[C@@H]3[C@@H](O)[C@H](N)C[C@H](N)[C@H]3O[C@H]3O[C@H](CO)[C@@H](O)[C@H](O)[C@H]3N)O[C@@H]2CO)[C@H](N)[C@@H](O)[C@@H]1O` [Paromomycin], the Kd in data set [6] (27-mer RNA containing the A-site of the 16S rRNA, known value, read-out: Kd, binding to the unpaired adenosine residues) is 200 nM; in data set [6] (standard, known from other experiments or literature, read-out: binding affinity for a test 27-mer RNA) it was about 1000 nM; in [8], 500 nM. For the same compound, the “Activity: Inhibition of protein synthesis in transcription/translation assay for luciferase reporter” value in data set [7] came out at 0.3 µM.

`C=C(NC(=O)C(=C)NC(=O)c1csc(C2=N[C@@H]3c4csc(n4)[C@H]4NC(=O)c5csc(n5)[C@H]([C@](C)(O)[C@@H](C)O)NC(=O)[C@H]5CSC(=N5)/C(=C/C)NC(=O)[C@H]([C@@H](C)O)NC(=O)c5csc(n5)[C@]3(CC2)NC(=O)[C@H](C)NC(=O)C(=C)NC(=O)[C@H](C)NC(=O)[C@H]([C@@H](C)CC)N[C@@H]2C=Cc3c([C@H](C)O)cc(nc3[C@H]2O)C(=O)O[C@@H]4C)n1)C(N)=O` [thiostrepton]: the solubility result in data set [9] is given as “very poor solubility”. The “L11 fragment binding to 23S rRNA fragment (SPA signal)” value in data set [10] is given as “allows the L11 fragment to bind leading to the generation of a signal”.
